Measured values from ChEMBL document CHEMBL5385926, “Production of Kinanthraquinone D with Antimalarial Activity by Heterologous Gene Expression and Biotransformation in Streptomyces lividans TK23” (J Nat Prod, 2024).
Values joined by “and” are separate entries in the source; they are usually repeats but may differ in a detail not shown here. Identical values can stand only once.

Assays:
[1] = Cytotoxicity against human HL-60 cells; format: toxicity, cell-based
Staphylococcus aureus = experiment: Antimicrobial activity against Staphylococcus aureus 209; format: functional, organism-based
[2] = Cytotoxicity against human HeLa cells; format: toxicity, cell-based
Plasmodium falciparum = experiment: Antimalarial activity against Plasmodium falciparum 3D7; format: functional, organism-based

Structure (SMILES)	IC50 [1]	IC50 (Staphylococcus aureus)	IC50 [2]	IC50 (Plasmodium falciparum)
COc1ccc2c(c1OC)C(=O)c1ccc(/C=C(/C)CC(N)=O)c(O)c1C2=O	> 30 µM and > 11.4 µg/mL	> 30 µM and > 11.4 µg/mL	> 30 µM and > 11.4 µg/mL	1.21 µM and 0.5 µg/mL
COc1ccc2c(c1OC)C(=O)c1ccc(/C=C(/C)CC(=O)O)c(O)c1C2=O	> 30 µM and > 11.5 µg/mL	18 µM and 6.9 µg/mL	> 30 µM and > 11.5 µg/mL	15 µM and 5.7 µg/mL
COc1ccc2c(c1OC)C(=O)c1ccc(/C=C(/C)CC(=O)NCC(=O)O)c(O)c1C2=O	> 30 µM and > 13.2 µg/mL	> 30 µM and > 13.2 µg/mL	> 30 µM and > 13.2 µg/mL	> 30 µM and > 13.2 µg/mL
COc1ccc2c(c1OC)C(=O)c1c(O)cc(/C=C(/C)CC(N)=O)c(O)c1C2=O	> 30 µM and > 11.9 µg/mL	> 30 µM and > 11.9 µg/mL	> 30 µM and > 11.9 µg/mL	910 nM and 0.4 µg/mL
